{"source": "patent US9603852B2", "about": "“Treatment of obesity and pulmonary arterial hypertension” (ALBERT EINSTEIN COLLEGE OF MEDICINE, INC., priority 2013, dated 2017)", "key": {"C57BL6/J mice [1]": {"system": "C57BL6/J mice", "assay": "High fat diet induced body weight gain, food and water intake in mice", "format": "in vivo", "details": "WT C57BL6 mice on HFD, 0.2 mM in drinking water", "method": "CD and HFD were purchased from Purina LabDiet (Framingham, Mass.), and Research Diets (New Brunswick, N.J.), respectively. PGT global knockout (KO) mice were fed with HFD at 5-6 weeks of age. Simultaneously, WT-CD, WT-HFD, and PGTKO-HFD mice were treated with vehicle (0.4% DMSO+0.4% cremophore) or 0.2 mM Compound 146 from Table 1. To prepare Compound 146 solution, Compound 146 was dissolved in 100% DMSO at a concentration of 50 mM. Two mL of either DMSO or 50 mM Compound 146 were transferred into 500 mL drinking water; 2 mL cremophore were added into the mixture. The mixture was homogenous. Mice were housed individually and fed with CD or HFD, and water (with or without Compound 146) ad libitum. Food and water intakes and body weight were recorded every other day."}, "C57BL6/J mice [2]": {"system": "C57BL6/J mice", "assay": "Glucose tolerance test in HFD-fed mice", "format": "in vivo", "details": "mice on HFD, 0.2 mM in drinking water for 67 days; glucose 2 g/kg i.p. after 12 h fast", "method": "Glucose intolerance is often associated with obesity and HFD causes glucose intolerance. Mice were fasted for 12 hours. Glucose was injected intraperitoneally (20% glucose in saline, 2 g/kg body weight), and plasma glucose levels were measured at various time points by tail cut."}, "Sprague-Dawley rats [3]": {"system": "Sprague-Dawley rats", "assay": "Tolerability with twice daily injections in the naive rodent", "format": "in vivo", "details": "7 days", "method": "In the first arm of the project, the tolerability of compounds was assessed with twice daily (b.i.d) injections in the naive rodent. Following one week of acclimatization to the UNM housing environments, rats at this time weighing approximately 200-225 g were randomly assigned to either receive a 50 mg/kg injection b.i.d. of Compound 146 (n=4) or an equivalent weight-based volume of vehicle (Cremophor-NMP) b.i.d. (n=4). Rats received test article or saline for a total of 7 consecutive days. Blood draws were conducted immediately before the 2nd day of injections, before the 4th day, before the 6th day, and at sacrifice. Body weights were obtained at the same times as the blood draws. On the 7th day, blood from both cohorts was collected via cardiac puncture while under anesthesia. Lungs, heart, liver and kidney were collected and snap frozen in liquid nitrogen for post-mortem bioassays."}, "Sprague-Dawley rats [4]": {"system": "Sprague-Dawley rats", "assay": "Rat monocrotaline (MCT) model of pulmonary arterial hypertension", "format": "in vivo", "details": "for Deaths/Total N: 21 days", "method": "Monocrotaline (MCT) (Sigma-Aldrich) was formulated by standardized procedures, by first dissolving in an acidic solution (HCl), diluting with distilled H2O, then raising the pH to physiological levels (7.35-7.45) with NaOH. MCT (60 mg/kg) or a volume-matched saline solution was injected intraperitoneally once at the beginning of the study. Body weights were collected on day 0, 5, 7, 11, 14, 18, and 21.\nMCT and saline-injected rats (Day 1) were equally and randomly assigned to receive either vehicle (Cremophor-NMP), low dose Compound 146 or high dose Compound 146 via subcutaneous injections (Days 1-21). Injections were administered subcutaneously at 12 hour intervals throughout the study (actual range was 10-14 h).\nAfter 21 days of twice daily subq injections of either vehicle or two concentrations of Compound 146, rats were anesthetized (1.5-2.5% isoflurane; […]), shaved and positioned in dorsal recumbence. Anesthesia was maintained at an appropriate depth, with a target heart rate of ˜350 bpm to ensure minimal cardio-depressant effects during collection of RVSP.\nUpon absent deep pain reflex, a thoracotomy was performed to reveal the right ventricle and a fluid-filled catheter was inserted beyond the right ventricular free wall to permit recording of right ventricular hemodynamics (ADI Instruments). A digital trace of 10-30 seconds was obtained from which to derive right ventricular diastolic, mean, and systolic pressures, along with heart rate and related hemodynamic measures. Blood was then drawn via cardiac puncture and centrifuged to obtain EDTA plasma. Hearts were removed and the right ventricle dissected free from the septal wall. Each piece was weighed and reported as RV/LV+S. Tissues (plasma, heart, and lung) were excised and frozen in liquid nitrogen for later biochemical analysis. Additionally, kidneys and liver were snap frozen and stored for subsequent analysis.\nAnimals were examined twice per day (morning and evening) on each day of the study. Examinations focused on (1) identifying dead, weak, or moribund animals, and (2) documenting the onset and progression of any abnormal clinical signs, especially dermal lesions. Animals found dead were necropsied as soon as possible; for those subjects RV/LVS weight ratios were obtained, but no other parameters were collected.\nAll data were analyzed by a one-way ANOVA with Newman-Keuls post-hoc multiple comparison test. Probability values less than 0.05 were accepted as significant. Normality of distribution was assumed but for all data sets. All data were analyzed with GraphPad Prism v5.02."}, "rat PGT": {"target": "T1, rat PGT (Rattus norvegicus, UniProt Q00910)", "T1 construct": "expressed in transfected cells", "details": "cited from earlier work"}}}
{"smiles": "O=C(NCCOCCOCCNc1nc(Nc2ccc(C(=O)NCc3ccc(F)cc3)cc2)nc(Nc2ccc(O)c(C(=O)O)c2)n1)c1ccccc1", "note": "[Compound 146]", "values": [{"measurement": "HFD induced body weight gain", "setting": "C57BL6/J mice [1]", "value": "blunted HFD induced weight gain"}, {"measurement": "HFD induced glucose intolerance (glucose tolerance test)", "setting": "C57BL6/J mice [2]", "value": "improved HFD induced glucose intolerance"}, {"measurement": "cutaneous lesion diameter close to injection sites", "setting": "Sprague-Dawley rats [3]; 2 rats of the 50 mg/kg b.i.d. group that did not gain weight", "value": "1.5-2.0 cm"}, {"measurement": "body weight growth (tolerability)", "setting": "Sprague-Dawley rats [3]; naive rats, 50 mg/kg b.i.d. injection in NMP and Cremophor", "value": "heterogeneous failure to thrive"}, {"measurement": "RV pressures, MCT+Vehicle versus MCT+Compound 146 by ANOVA", "setting": "Sprague-Dawley rats [4]; 15 or 50 mg/kg b.i.d.", "value": "not statistically different"}, {"measurement": "RV pulse pressure, MCT+Vehicle versus MCT+Compound 146 by ANOVA", "setting": "Sprague-Dawley rats [4]; 15 or 50 mg/kg b.i.d.", "value": "statistically different"}, {"measurement": "Net RV weight increase by MCT", "setting": "Sprague-Dawley rats [4]; MCT rats", "value": "effect blunted"}, {"measurement": "Deaths/Total N", "setting": "Sprague-Dawley rats [4]; MCT rats, 15 mg/kg b.i.d. s.c.", "value": "0/8"}, {"measurement": "Deaths/Total N", "setting": "Sprague-Dawley rats [4]; MCT rats, 50 mg/kg b.i.d. s.c.", "value": "0/8"}, {"measurement": "MCT induced increase in total lung weight", "setting": "Sprague-Dawley rats [4]; MCT rats, both doses", "value": "inhibited"}, {"measurement": "RV hypertrophic response", "setting": "Sprague-Dawley rats [4]; MCT rats, both doses", "value": "significant inhibition"}, {"measurement": "RV/LVS ratio (Fulton Index), mean", "setting": "Sprague-Dawley rats [4]; MCT rats, high dose 50 mg/kg b.i.d.", "value": 0.47}, {"measurement": "right lobe dry weight / increase in structural components of the lung", "setting": "Sprague-Dawley rats [4]; MCT rats, lobe dried for 5 days", "value": "abrogated this remodeling"}, {"measurement": "RV/LVS ratio (Fulton Index), mean", "setting": "Sprague-Dawley rats [4]; MCT rats, low dose 15 mg/kg b.i.d.", "value": 0.41}, {"measurement": "Deaths/Total N", "setting": "Sprague-Dawley rats [4]; Saline-injected rats, 50 mg/kg b.i.d. s.c.", "value": "0/5"}, {"measurement": "RV pulse pressure, MCT effect compared to control rats", "setting": "Sprague-Dawley rats [4]; either dose (15 or 50 mg/kg b.i.d.)", "value": "MCT induced no significant effect compared to control rats"}, {"measurement": "RV systolic and mean pressures, MCT effect compared to control rats", "setting": "Sprague-Dawley rats [4]; either dose (15 or 50 mg/kg b.i.d.), ANOVA", "value": "MCT induced no significant effect compared to control rats"}, {"measurement": "lethalities", "setting": "Sprague-Dawley rats [4]; groups receiving any dose", "value": "no lethalities"}, {"measurement": "RV pressures, MCT-vehicle compared to MCT-Compound 146, restricted analysis", "setting": "Sprague-Dawley rats [4]; one-tailed unpaired Student's t-test, P=0.046 low dose and 0.002 high dose", "value": "significant reduction"}, {"measurement": "Inh (% of Ctl) 0.01 μM", "setting": "rat PGT; 0.01 μM compound, second part of Table 1", "value": "28.5 % of Ctl"}, {"measurement": "Inh (% of Ctl) 0.05 μM", "setting": "rat PGT; 0.05 μM compound, second part of Table 1", "value": "59.8 % of Ctl"}, {"measurement": "Inh (% of Ctl) 0.1 μM", "setting": "rat PGT; 0.1 μM compound, second part of Table 1 (Cpd 130-151)", "value": "70.4 % of Ctl"}]}
